The assay addresses T1, human GlyT1c transporter (Homo sapiens, UniProt P48067).
T1 construct: expressed in transfected cells; host or cells: CHO cells (recombinant; line hGlyT1c_5_CHO is named for the uptake assay)
T1 sequence (P48067 1-706): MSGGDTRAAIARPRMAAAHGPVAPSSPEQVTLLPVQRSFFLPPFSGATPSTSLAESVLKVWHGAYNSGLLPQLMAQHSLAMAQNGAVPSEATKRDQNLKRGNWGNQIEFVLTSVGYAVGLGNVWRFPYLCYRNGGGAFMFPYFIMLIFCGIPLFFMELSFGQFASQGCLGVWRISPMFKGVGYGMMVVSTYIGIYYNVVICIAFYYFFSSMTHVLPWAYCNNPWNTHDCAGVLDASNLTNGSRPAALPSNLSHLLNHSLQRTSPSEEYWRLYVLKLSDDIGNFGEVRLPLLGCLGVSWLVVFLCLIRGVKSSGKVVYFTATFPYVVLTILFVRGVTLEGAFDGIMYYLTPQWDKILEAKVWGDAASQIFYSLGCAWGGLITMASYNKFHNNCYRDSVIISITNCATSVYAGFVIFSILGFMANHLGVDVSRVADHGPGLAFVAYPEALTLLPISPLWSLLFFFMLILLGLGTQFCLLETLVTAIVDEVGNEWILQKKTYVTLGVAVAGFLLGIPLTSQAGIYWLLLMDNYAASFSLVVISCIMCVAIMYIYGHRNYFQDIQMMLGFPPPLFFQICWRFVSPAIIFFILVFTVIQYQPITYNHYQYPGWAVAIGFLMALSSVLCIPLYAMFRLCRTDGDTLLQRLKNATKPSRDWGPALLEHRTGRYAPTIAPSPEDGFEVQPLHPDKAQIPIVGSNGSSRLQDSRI
As to the kind of experiment: Radioligand binding assay using recombinant CHO cell membranes expressing human GlyT1. An excerpt:
2. Radioligand binding assays using recombinant CHO cell membranes expressing human GlyT1: […]

Where [1] appears, read: radioligand binding to human GlyT1c transporter-expressing membranes.
Where [2] appears, read: radioligand binding, recombinant CHO cell membranes expressing human GlyT1c.

Where only a bound is given, the exact number is not on record here.

In general, Ki refers to the dissociation constant of the complex between target and ligand, obtained from inhibition or displacement. On to `Cn1cnc(S(=O)(=O)N2C[C@@H](Nc3ccc(F)c(Cl)c3)[C@H](c3ccccc3)C2)c1` (relative stereo) [Example 215, trans-N-(3-chloro-4-fluorophenyl)-1-[(1-methyl-1H-imidazol-4-yl)sulfonyl]-4-phenylpyrrolidin-3-amine], for which the Ki under setting [1] was no more than 100 nM.

In the case of `Cc1cc(N[C@H]2CN(S(=O)(=O)c3cn(C)cn3)C[C@@H]2c2ccc(F)cc2)ccc1C(F)(F)F` [Example 676, (3R,4S)-4-(4-fluorophenyl)-1-[(1-methyl-1H-imidazol-4-yl)sulfonyl]-N-[3-methyl-4-(trifluoromethyl)phenyl]pyrrolidin-3-amine], the Ki under setting [1] was no more than 1000 nM.

Turning to `Cn1cnc(S(=O)(=O)N2C[C@H](NCCc3cccc(Cl)c3)[C@@H](c3ccccc3)C2)c1` [Example 468, (3R,4S)-N-[2-(3-chlorophenyl)ethyl]-1-[(1-methyl-1H-imidazol-4-yl)sulfonyl]-4-phenylpyrrolidin-3-amine], under setting [1], the Ki is no more than 100 nM.

With `Cn1cnc(S(=O)(=O)N2C[C@@H]([C@@H]3CCCOC3)[C@H](Nc3ccc(F)c(Cl)c3)C2)c1` (mixture of isomers) [Example 789, Trans-N-(3-chloro-4-fluorophenyl)-1-[(1-methyl-1H-imidazol-4-yl)sulfonyl]-4-[(3S)-tetrahydro-2H-pyran-3-yl]pyrrolidin-3-amine], the Ki under setting [1] is no more than 1000 nM.

Regarding `Cn1cnc(S(=O)(=O)N2C[C@@H](Nc3ccc(F)c(Cl)c3)[C@H](c3ccccc3Cl)C2)c1` (relative stereo) [Example 257, trans-N-(3-chloro-4-fluorophenyl)-4-(2-chlorophenyl)-1-[(1-methyl-1H-imidazol-4-yl)sulfonyl]pyrrolidin-3-amine], under setting [1], the Ki is no more than 100 nM.

On to `Cn1cnc(S(=O)(=O)N2C[C@@H](Nc3cccc(OC(F)(F)F)c3)[C@H](C3CCOC3)C2)c1` (relative stereo) [Example 835, trans-1-[(1-methyl-1H-imidazol-4-yl)sulfonyl]-4-(tetrahydrofuran-3-yl)-N-[3-(trifluoromethoxy)phenyl]pyrrolidin-3-amine], for which the Ki under setting [2] is no more than 1000 nM.

`Cn1cnc(S(=O)(=O)N2C[C@@H](COc3ccnc(C(F)(F)F)c3)[C@H](c3ccc(F)cc3)C2)c1` (relative stereo) [Example 366, 4-({Trans-4-(4-fluorophenyl)-1-[(1-methyl-1H-imidazol-4-yl)sulfonyl]pyrrolidin-3-yl}methoxy)-2-(trifluoromethyl)pyridine]: the Ki under setting [1] was no more than 100 nM.

On to `COCCOCCN[C@H]1CN(S(=O)(=O)c2cn(C)cn2)C[C@@H]1c1ccccc1` [Example 666, (3R,4S)-N-[2-(2-methoxyethoxy)ethyl]-1-[(1-methyl-1H-imidazol-4-yl)sulfonyl]-4-phenylpyrrolidin-3-amine], for which the Ki under setting [1] is no more than 10000 nM.

For `Cn1cnc(S(=O)(=O)N2C[C@H](C(=O)NCc3ccc(C(F)(F)F)cc3Cl)[C@@H](c3ccc(F)cc3)C2)c1` [Example 663, (3R,4S)-N-[2-chloro-4-(trifluoromethyl)benzyl]-4-(4-fluorophenyl)-1-[(1-methyl-1H-imidazol-4-yl)sulfonyl]pyrrolidine-3-carboxamide], the Ki under setting [1] is no more than 100 nM.

As for `Cn1cnc(S(=O)(=O)N2C[C@H](NCc3cncc(-c4ccc(F)cc4)c3)[C@@H](c3ccccc3)C2)c1` [Example 445, (3R,4S)-N-{[5-(4-fluorophenyl)pyridin-3-yl]methyl}-1-[(1-methyl-1H-imidazol-4-yl)sulfonyl]-4-phenylpyrrolidin-3-amine], the Ki under setting [1] was no more than 1000 nM.

As for `Cn1cnc(S(=O)(=O)N2C[C@@H](NC(=O)c3ccc(C(F)(F)F)cc3Cl)[C@H](c3ccccc3)C2)c1` (relative stereo) [Example 60, 2-chloro-N-{trans-1-[(1-methyl-1H-imidazol-4-yl)sulfonyl]-4-phenylpyrrolidin-3-yl}-4-(trifluoromethyl)benzamide], the Ki under setting [1] is no more than 100 nM.

Consider `Cn1cc(S(=O)(=O)N2C[C@H](Nc3cccc(C(F)(F)F)c3)[C@@H](c3ccc(F)cc3)C2)nn1` [Example 839, (3R,4S)-4-(4-fluorophenyl)-1-[(1-methyl-1H-1,2,3-triazol-4-yl)sulfonyl]-N-[3-(trifluoromethyl)phenyl]pyrrolidin-3-amine], for which the inhibitory constant (Ki) under setting [2] was no more than 10 nM.

Consider `Cn1cnc(S(=O)(=O)N2C[C@@H](Nc3cc(C(F)(F)F)ncn3)[C@H](c3ccccc3)C2)c1` (relative stereo) [Example 240, N-{trans-1-[(1-methyl-1H-imidazol-4-yl)sulfonyl]-4-phenylpyrrolidin-3-yl} -6-(trifluoromethyl)pyrimidin-4-amine], for which the Ki under setting [1] is no more than 100 nM.

Turning to `Cn1cnc(S(=O)(=O)N2C[C@@H](C(=O)Nc3cccc(C(F)(F)F)c3Cl)[C@H](c3ccc(F)cc3)C2)c1` (relative stereo) [Example 272, Trans-N-[2-chloro-3-(trifluoromethyl)phenyl] -4-(4-fluorophenyl)-1 - [(1-methyl-1H-imidazol-4-yl)sulfonyl]pyrrolidine-3-carboxamide], under setting [1], the Ki was no more than 1000 nM.

For the compound `Cn1cnc(S(=O)(=O)N2C[C@H](Nc3cc(-c4cccnc4)ccn3)[C@@H](c3ccc(F)cc3)C2)c1` [Example 750, N-{(3R,4S)-4-(4-fluorophenyl)-1-[(1-methyl-1H-imidazol-4-yl)sulfonyl]pyrrolidin-3-yl}-3,4'-bipyridin-2'-amine], the Ki under setting [1] was no more than 100 nM.

Regarding `COc1ccc(S(=O)(=O)N2C[C@@H](NC(=O)c3ccc(C(F)(F)F)cc3)[C@H](c3ccccc3)C2)cc1` (relative stereo) [Example 134, N-{trans-1-[(4-methoxyphenyl)sulfonyl]-4-phenylpyrrolidin-3-yl}-4-(trifluoromethyl)benzamide], the Ki under setting [1] is no more than 10000 nM.

Take `Cn1cnc(S(=O)(=O)N2C[C@H](Nc3cc(-c4ccncc4)ccn3)[C@@H](c3ccc(F)cc3)C2)c1` [Example 751, N-{(3R,4S)-4-(4-fluorophenyl)-1-[(1-methyl-1H-imidazol-4-yl)sulfonyl]pyrrolidin-3-yl}-4,4'-bipyridin-2-amine]: the Ki under setting [1] was no more than 100 nM.

Regarding `CCCCOC(=O)N[C@H]1CN(S(=O)(=O)c2cn(C)cn2)C[C@@H]1c1ccccc1` [Example 544, butyl {(3R,4S)-1-[(1-methyl-1H-imidazol-4-yl)sulfonyl]-4-phenylpyrrolidin-3-yl}carbamate], the Ki under setting [1] was no more than 10000 nM.

On to `Cn1cnc(S(=O)(=O)N2C[C@@H](NC(=O)c3ccc(C(F)(F)F)c(Cl)c3)[C@H](c3ccccc3)C2)c1` (relative stereo) [Example 61, 3-chloro-N-{trans-1-[(1-methyl-1H-imidazol-4-yl)sulfonyl]-4-phenylpyrrolidin-3-yl}-4-(trifluoromethyl)benzamide], for which, under setting [1], the Ki is no more than 1000 nM.

Turning to `Cn1cnc(S(=O)(=O)N2C[C@H](NCc3ccc(C(F)(F)F)o3)[C@@H](c3ccc(F)cc3)C2)c1` [Example 391, (3R,4S)-4-(4-fluorophenyl)-1-[(1-methyl-1H-imidazol-4-yl)sulfonyl]-N-{[5-(trifluoromethyl)furan-2-yl]methyl}pyrrolidin-3-amine], the Ki under setting [1] was no more than 100 nM.

Consider `Cn1cnc(S(=O)(=O)N2CC(Oc3ccccc3)C(c3ccccc3)C2)c1` (centres unmarked) [Example 277, 1-methyl-4-[(3-phenoxy-4-phenylpyrrolidin-1-yl)sulfonyl]-1H-imidazole], for which the Ki under setting [1] is no more than 10000 nM.

With `Cn1cnc(S(=O)(=O)N2C[C@@H](NC(=O)c3ccccc3C#N)[C@H](c3ccccc3)C2)c1` (relative stereo) [Example 32, 2-cyano-N-{trans-1-[(1-methyl-1H-imidazol-4-yl)sulfonyl]-4-phenylpyrrolidin-3-yl} benzamide], under setting [1], the Ki was no more than 10000 nM.

`Cn1cnc(S(=O)(=O)N2C[C@@H](NCc3ccccc3F)[C@H](c3ccc(F)cc3)C2)c1` (relative stereo) [Example 263, trans-N-(2-fluorobenzyl)-4-(4-fluorophenyl)-1-[(1-methyl-1H-imidazol-4-yl)sulfonyl]pyrrolidin-3-amine]: the Ki under setting [1] is no more than 100 nM.

As for `CCC(CCCN[C@H]1CN(S(=O)(=O)c2cn(C)cn2)C[C@@H]1c1ccccc1)OC` (stereo partly drawn) [Example 648, (3R,4S)-N-(4-methoxyhexyl)-1-[(1-methyl-1H-imidazol-4-yl)sulfonyl]-4-phenylpyrrolidin-3-amine], under setting [1], the Ki was no more than 10000 nM.

For `N#Cc1ccccc1S(=O)(=O)N1C[C@@H](Nc2cccc(Cl)c2)[C@H](c2ccccc2)C1` (relative stereo) [Example 528, 2-({Trans-3-[(3-chlorophenyl)amino]-4-phenylpyrrolidin-1-yl}sulfonyl)benzonitrile], the Ki under setting [1] was greater than 10000 nM.

In the case of `O=C(N[C@@H]1CN(S(=O)(=O)CC2CC2)C[C@H]1c1ccccc1)c1ccc(C(F)(F)F)cc1` (relative stereo) [Example 128, N-{trans-1-[(cyclopropylmethyl)sulfonyl]-4-phenylpyrrolidin-3-yl}-4-(trifluoromethyl)benzamide], the Ki under setting [1] was no more than 10000 nM.

(Values after patent EP2970215B1, “PYRROLIDINE DERIVATIVES, PHARMACEUTICAL COMPOSITIONS CONTAINING THEM, AND THEIR USE IN THERAPY” (AbbVie Deutschland GmbH & Co. KG, priority 2013, dated 2014).)
